This note sets out measurements from patent US10053667B2, “Differentiation of human pluripotent stem cells to multipotent neural crest cells” (UNIVERSITY OF GEORGIA RESEARCH FOUNDATION, INC., priority 2010, dated 2018).

“Also recorded” adds a separate entry of the source.

Assay type in all cases: cell-based, human
For assay [1], the system named is β-catenin signaling. The assay is described as follows: Top-Flash luciferase reporter assay for β-catenin activity in hESCs. The note with it: hESC cultures; Top-Flash normalized to Fop-Flash. The method, then:
Data is expressed as the fold-increase in luciferase activity over untreated cells after normalization to the Fop-Flash control. All assays were performed in triplicate and represented as +/−standard deviation. (B) Top-Flash activity in hESCs grown in defined media treated with Wnt3a, Dkk1, Wnt3a and Dkk1 or BIO. Experiments were performed in triplicate and represented as +/−standard deviation.

Assay [2] deals with WA09 hESCs. The assay is described as follows: hESC differentiation to neural crest-like versus neural progenitor cells, flow cytometry for p75 and Hnk1. The following applies: for generation of Hnk1+ p75+ (Hnk1bright p75bright) neural crest-like population: WA09 hESCs treated 15 days, FIG. 2A, factors added to or omitted from SB 431542/BIO media; for proportion of Hnk1bright p75bright cells: dose-response, added to cultures treated with SB 431542 and Noggin, BIO 0-2 µM, Wnt3a 0-50 ng/ml. The method, then:
(§1) NPC differentiation was performed as described (18). Briefly, cells were plated on Geltrex-coated plates in defined media without Activin A, supplemented with 20 μM SB 431542 (Tocris) and 500 ng/ml Noggin (R&D systems) for 11 days with or without 2 μM of (2′Z,3′E)-6-Bromoindirubin-3′-oxime (BIO) (GSK3 Inhibitor IX, Calbiochem), or 15 ng/ml Dickkopf (R&D Systems). For direct neural crest differentiation, cells were plated at a density of 1×10^5 cells/cm^2 in defined media lacking Activin A, supplemented with 2 μM BIO and 20 μM SB 431542 (SB media). Media was replaced every day. Additional experiments were performed by adding 25 ng/ml Wnt3a, 500 ng/ml Noggin or 5-50 ng/ml of BMP4 (R&D Systems) to SB media. For peripheral neuron differentiation, neural crest cells were plated in poly-L-ornithine/laminin or Geltrex-coated 4-well chamber slides. The following day, SB media was switched to DMEM/F12 N2 supplemented media with BDNF (10 ng/ml), GDNF (10 ng/ml), NGF (10 ng/ml), neurotrophin-3 (10 ng/ml), ascorbic acid (200 μM) and dbcAMP (0.5 mM). Cells were grown for 10-14 days and assayed by immunocytochemisty. Neural crest cells were cultured in media containing 10% fetal bovine serum and passed every 4-5 days. Osteocyte, adipocyte and chondrocyte differentiation was performed according to manufacturer directions using StemPro Osteogenesis Kit, StemPro Chondrogenesis Differentiation Kit, StemPro Adipogenesis Differentiation Kit (Invitrogen), respectively.
Cells were fixed in 4% paraformaldehyde in phosphate buffered saline (PBS) and stained with primary antibodies listed in attached Table 1 (below). Secondary antibodies were Alexa Fluor 488 and Alexa Fluor 555-conjugated (Invitrogen). DNA was visualized by staining with DAPI. For flow cytometry, one million live cells dissociated with Accutase were re-suspended in PBS and incubated for 30 minutes on ice with primary conjugated antibodies, listed in Table 1. Unconjugated p75 (neurotrophin receptor) and Hnk1 antibodies were detected with Alexa Fluor 633 and Alexa Fluor 488-conjugated secondary antibodies, respectively. Cells were analyzed using the CyAN ADP (Beckman Coulter) and FlowJo software.

Assay [3] deals with WA09 hESCs. In words: hESC differentiation, immunostaining for neural crest markers (p75, Ap2, Hnk1) and NPC markers (Pax6, Sox2). The procedure: as §1, with “Briefly, cells were plated on Geltrex-coated plates in defined media without Activin A, supplemented with 20 μM SB 431542 (Tocris) and 500 ng/ml Noggin (R&D systems) for 11 days with or without 2 μM of (2′Z,3′E)-6-Bromoindirubin-3′-oxime (BIO) (GSK3 Inhibitor IX, Calbiochem), or 15 ng/ml Dickkopf (R&D Systems). For direct neural crest differentiation, cells were plated at a density of 1×10^5 cells/cm^2 in defined media lacking Activin A, supplemented with 2 μM BIO and 20 μM SB 431542 (SB media).” left out
Cells were fixed in 4% paraformaldehyde in phosphate buffered saline (PBS) and stained with primary antibodies listed in attached Table 1 (below). […] DNA was visualized by staining with DAPI. For flow cytometry, one million live cells dissociated with Accutase were re-suspended in PBS and incubated for 30 minutes on ice with primary conjugated antibodies, listed in Table 1. […] Cells were analyzed using the CyAN ADP (Beckman Coulter) and FlowJo software.

The mark [4] stands for this setting: BIO added to SB 431542 and Noggin (Smad inhibition), 12 days.

With `O=C1Nc2cc(Br)ccc2/C1=C1/Nc2ccccc2/C1=N\O` [BIO, (2′Z,3′E)-6-Bromoindirubin-3′-oxime], the “activation of β-catenin-dependent luciferase reporter (canonical Wnt pathway)” value in assay [1] is given as “activates β-catenin signaling; also recorded: efficiently activates the canonical Wnt pathway”. Besides, in assay [2], the “generation of Hnk1+ p75+ (Hnk1bright p75bright) neural crest-like population” value (“generation of Hnk1+ p75+” for short) is listed as “ineffective” and the “proportion of Hnk1bright p75bright cells” value is recorded as “increased the proportion of Hnk1^bright p75^bright cells in a dose-dependent manner”. Moreover, in assay [3] (setting [4]), the “formation of Pax6+ cells” value is listed as “suppresses this; also recorded: severely inhibited the formation of Pax6^+ cells” and the “percentage of p75+ cells” value is reported as “generates p75+ Pax6− neural crest-like cells; also recorded: markedly increasing the percentage of p75^+ cells”. In addition, the Sox2 expression entry in assay [3] (immunostaining, Smad signaling suppressed, range of BIO concentrations) is given as “dose-dependent response”.
Take `NC(=O)c1ccc(-c2nc(-c3ccc4c(c3)OCO4)c(-c3ccccn3)[nH]2)cc1` [SB 431542]: the “generation of Hnk1+ p75+” value in assay [2] is “ineffective”.

B1: Dickkopf: a Wnt antagonist (R&D Systems) (protein, UniProt O94907 32-266, looked up)
Dickkopf-related protein 1: TLNSVLNSNAIKNLPPPLGGAAGHPGSAVSAAPGILYPGGNKYQTIDNYQPYPCAEDEECGTDEYCASPTRGGDAGVQICLACRKRRKRCMRHAMCCPGNYCKNGICVSSDQNHFRGEIEETITESFGNDHSTLDGYSRRTTLSSKMYHTKGQEGSVCLRSSDCASGLCCARHFWSKICKPVLKEGQVCTKHRRKGSHGLEIFQRCYCGEGLSCRIQKDHHQASNSSRLHTCQRH
Take B1: the “p75bright cells in NPC cultures” value in assay [2] (NPC cultures obtained by treatment with Noggin and SB 431542) was “decreases the p75bright population; also recorded: severely reduced the low level of p75^bright cells”.

B2: BMP4: bone morphogenic protein added to SB media (R&D Systems) (protein, UniProt P12644 293-408, looked up)
Bone morphogenetic protein 4: SPKHHSQRARKKNKNCRRHSLYVDFSDVGWNDWIVAPPGYQAFYCHGDCPFPLADHLNSTNHAIVQTLVNSVNSSIPKACCVPTELSAISMLYLDEYDKVVLKNYQEMVVEGCGCR
For B2, in assay [2], the “generation of Hnk1+ p75+” value is “suppressed the transition to an Hnk1^bright p75^bright state”.

B3: Wnt3a: recombinant Wnt protein, Wnt signaling promoter (protein, UniProt P56704 19-352, looked up)
Protein Wnt-3a: SYPIWWSLAVGPQYSSLGSQPILCASIPGLVPKQLRFCRNYVEIMPSVAEGIKIGIQECQHQFRGRRWNCTTVHDSLAIFGPVLDKATRESAFVHAIASAGVAFAVTRSCAEGTAAICGCSSRHQGSPGKGWKWGGCSEDIEFGGMVSREFADARENRPDARSAMNRHNNEAGRQAIASHMHLKCKCHGLSGSCEVKTCWWSQPDFRAIGDFLKDKYDSASEMVVEKHRESRGWVETLRPRYTYFKVPTERDLVYYEASPNFCEPNPETGSFGTRDRTCNVSSHGIDGCDLLCCGRGHNARAERRREKCRCVFHWCCYVSCQECTRVYDVHTCK
For B3, in assay [2], the “generation of Hnk1+ p75+” value is on record as “can substitute for BIO” and the “proportion of Hnk1bright p75bright cells” value is “increased the proportion of Hnk1^bright p75^bright cells in a dose-dependent manner”.

B4: Noggin: BMP inhibitor protein (R&D systems) (protein, UniProt Q13253 28-232, looked up)
Noggin: QHYLHIRPAPSDNLPLVDLIEHPDPIFDPKEKDLNETLLRSLLGGHYDPGFMATSPPEDRPGGGGGAAGGAEDLAELDQLLRQRPSGAMPSEIKGLEFSEGLAQGKKQRLSKKLRRKLQMWLWSQTFCPVLYAWNDLGSRFWPRYVKVGSCFSKRSCSVPEGMVCKPSKSVHLTVLRWRCQRRGGQRCGWIPIQYPIISECKCSC
Take B4: in assay [2], the “generation of Hnk1+ p75+” value is “no major impact”.
